Experimental data as given in patent US8008251B2, “Macrocyclic inhibitors of hepatitis C virus” (Tibotec Pharmaceuticals Ltd., priority 2005, dated 2011).
Like-named read-outs stand apart in the source and are kept apart here.

Experiments:
[1] = rcm bond, Hoveyda-Grubbs 1st generation catalyst, 1,2-dichloroethane, 83.0 °C
[2] = Oral pharmacokinetics in dog with and without ritonavir boosting; assay type: in vivo, male Beagle dogs; settings: single oral 10 mg/kg, boosted with ritonavir (Norvir 100 mg capsule) vs non-boosted
Experimental: Oral pharmacokinetics of Compound nr. 9 in male Beagle dogs after a single dose at 10 mg/kg, using a formulation in 50% PEG400/water and the influence of “boosting” with 10 mg/kg ritonavir were investigated.
Six male Beagle dogs (body weight 8-10 kg) were randomly divided into 2 groups of 3 animals (boosted and non-boosted). No untreated or vehicle-treated control animals were included. […] Drinking water remained available throughout the experiment.
Dogs from the non-boosted group received a single oral 10 mg/kg dose of Compound nr. 9, formulated as a 5 mg/ml 50% PEG400/water. Dogs from the boosted group received a single soft capsule of Norvir® (ritonavir, 100 mg/capsule), about 30 minutes before single oral dosing with 10 mg/kg of Compound nr. 9. The drug formulations were administered by oral gavage, using a gastric tube.
A 3 ml blood sample was collected at 0.5 h 1 h, 2 h, 4 h, 6 h, 8 h and 24 hours after dosing of Compound nr. 9. Plasma concentrations were determined using HPLC-MS. Results are shown in the table 5 below, expressed as fold change in pharmacokinetic parameter of the boosted group as compared to the non-boosted group.

[3] = test system: HCV replicons (NS3-NS5B regions of HCV type 1b) in Huh-7 luc/neo cells; assay: HCV replicon assay (Huh-Luc, luciferase readout); assay type: cell-based; settings: Hepatitis C virus, Huh-7, 72 h, three days incubation, luciferase activity
Experimental: The in vitro antiviral activity against HCV of the compounds of formula (I) was tested in a cellular HCV replicon system based on Lohmann et al. (1999) Science 285:110-113, with the further modifications described by Krieger et al. (2001), Journal of Virology 75: 4614-4624, which is further exemplified in the examples section. This model, while not a complete infection model for HCV, is widely accepted as the most robust and efficient model of autonomous HCV RNA replication currently available. […] It will be appreciated that it is important to distinguish between compounds that specifically interfere with HCV functions from those that exert cytotoxic or cytostatic effects in the HCV replicon model, and as a consequence cause a decrease in HCV RNA or linked reporter enzyme concentration. Assays are known in the field for the evaluation of cellular cytotoxicity based for example on the activity of mitochondrial enzymes using fluorogenic redox dyes such as resazurin. Furthermore, cellular counter screens exist for the evaluation of non-selective inhibition of linked reporter gene activity, such as firefly luciferase. Appropriate cell types can be equipped by stable transfection with a luciferase reporter gene whose expression is dependent on a constitutively active gene promoter, and such cells can be used as a counter-screen to eliminate non-selective inhibitors.
The compounds of formula (I) were examined for activity in the inhibition of HCV RNA replication in a cellular assay. […] The cellular assay was based on a bicistronic expression construct, as described by Lohmann et al. (1999) Science vol. 285 pp. 110-113 with modifications described by Krieger et al. (2001) Journal of Virology 75: 4614-4624, in a multi-target screening strategy. In essence, the method was as follows.
The assay utilized the stably transfected cell line Huh-7 luc/neo (hereafter referred to as Huh-Luc). This cell line harbors an RNA encoding a bicistronic expression construct comprising the wild type NS3-NS5B regions of HCV type 1b translated from an Internal Ribosome Entry Site (IRES) from encephalomyocarditis virus (EMCV), preceded by a reporter portion (FfL-luciferase), and a selectable marker portion (neo^R, neomycine phosphotransferase). […]
The replicon cells were plated in 384 well plates in the presence of the test and control compounds which were added in various concentrations. Following an incubation of three days, HCV replication was measured by assaying luciferase activity (using standard luciferase assay substrates and reagents and a Perkin Elmer ViewLux™ ultraHTS microplate imager). […] The inhibitory activity of the compound on luciferase activity was monitored on the Huh-Luc cells, enabling a dose-response curve for each test compound.

in vitro = settings: human, Caco-2
[4] = target: T1, full-length hepatitis C NS3 protease enzyme with NS4A cofactor (HCV NS3/4A protease) (Hepatitis C virus genotype 1a, UniProt P27958); assay: Enzymatic inhibition assay of HCV NS3/4A protease; assay type: biochemical
T1 construct: full-length hepatitis C NS3 protease enzyme
T1 sequence (P27958 1027-1657, other chains not shown): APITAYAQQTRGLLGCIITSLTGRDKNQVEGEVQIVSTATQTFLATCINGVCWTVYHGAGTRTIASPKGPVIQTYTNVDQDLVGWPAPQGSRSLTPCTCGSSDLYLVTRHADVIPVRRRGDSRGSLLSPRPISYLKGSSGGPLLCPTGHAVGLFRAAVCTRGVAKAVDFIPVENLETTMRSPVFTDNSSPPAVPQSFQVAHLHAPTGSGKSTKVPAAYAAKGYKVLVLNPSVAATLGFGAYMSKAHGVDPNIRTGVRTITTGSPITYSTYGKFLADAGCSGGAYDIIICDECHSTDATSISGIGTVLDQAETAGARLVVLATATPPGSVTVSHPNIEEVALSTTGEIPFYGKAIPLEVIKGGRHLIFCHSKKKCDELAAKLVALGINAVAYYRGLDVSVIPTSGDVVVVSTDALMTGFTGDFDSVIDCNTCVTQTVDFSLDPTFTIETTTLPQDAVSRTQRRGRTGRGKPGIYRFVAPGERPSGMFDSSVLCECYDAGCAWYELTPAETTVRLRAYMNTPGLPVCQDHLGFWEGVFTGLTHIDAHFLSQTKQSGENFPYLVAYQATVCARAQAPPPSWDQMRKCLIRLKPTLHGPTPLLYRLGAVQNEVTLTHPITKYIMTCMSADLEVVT
Experimental: [Landro, Biochemistry, 1997, 36(31): 9340-9348]. […] The solutions were stored at −20° C. between measurements.
[Liu, 1999 Analytical Biochemistry 267 331-335].

[5] = In vitro metabolic blocking by ritonavir in human liver microsomes; assay type: in vitro ADME; settings: human liver microsomes 1 mg/ml
Experimental: Different HCV NS3/4a protease inhibitors were tested in a metabolic blocking experiment using 3 μM test compound together with 10 μM ritonavir acting as booster. Test compounds and ritonavir were added to human liver microsomes (protein concentration 1 mg/ml) suspended in potassium phosphate buffer (pH=7.4), to get final reaction mixture concentrations of 3 μM test compound and 10 μM ritonavir. In the non-boosted parallel reactions, ritonavir was not added. Boiled human liver microsomes were used for blank experiments. After addition (in a 1:3 ratio) of a cofactor mixture consisting of β-nicotinamide adenine dinucleotide phosphate (β-NADP, 0.5 mg/ml, 653.2 μM), D-Glucose-6-phosphate (2 mg/ml, 7.1 mM), Glucose-6-phosphate dehydrogenase (1.5 U/ml) in 2% NaHCO3, the reaction mixture was incubated at 37° C. for 30 or 120 minutes after which the reaction was stopped by increasing the temperature to 95° C. Test compound concentrations were determined using HPLC-MS.
Values are percentages of test compound detected after the indicated incubation times as compared to the initial test compound concentration. Each value is the mean of the results of two independent experiments.

[6] = reference compounds for permeability assay; cited from earlier work

CCOC(=O)C12CC1C=CCCCCCNC(=O)N1CC(Oc3cc(-c4nc(C(C)C)cs4)nc4cc(OC)ccc34)CC1C(=O)N2 (stereo not shown) gave a ring closure, yield of all isomers ([1]; from C=CCCCCCNC(=O)N1CC(Oc2cc(-c3nc(C(C)C)cs3)nc3cc(OC)ccc23)CC1C(=O)NC1(C(=O)OCC)CC1C=C, 2.2 mM, 16.0 h) of 57%.

Compound CCOC(=O)C12CC1C=CCCCCN(C)C(=O)N1CC(OC(=O)c3ccc([N+](=O)[O-])cc3)CC1C(=O)N2 (stereo not shown) has a ring closure, yield of all isomers ([1]; from C=CCCCCN(C)C(=O)N1CC(OC(=O)c2ccc([N+](=O)[O-])cc2)CC1C(=O)NC1(C(=O)OCC)CC1C=C, 1.93 mM) of 74%.

For CCOC(=O)C12CC1C=CCCCCN(C)C(=O)N1CC(Oc3cc(-c4nc(C(C)C)cs4)nc4cc(OC)ccc34)CC1C(=O)N2 (stereo not shown), the ring closure, yield of all isomers ([1]; from C=CCCCCN(C)C(=O)N1CC(Oc2cc(-c3nc(C(C)C)cs3)nc3cc(OC)ccc23)CC1C(=O)NC1(C(=O)OCC)CC1C=C, 1.45 mM) was 74%.

In the case of COc1ccc2c(O[C@@H]3C[C@H]4C(=O)N[C@]5(C(=O)NS(=O)(=O)C6CC6)C[C@H]5/C=C\CCCCCNC(=O)N4C3)cc(-c3nc(C(C)C)cs3)nc2c1 [Compound 9, N-[18-[2-(4-isopropylthiazol-2-yl)-7-methoxyquinolin-4-yl-oxy]-2,15-dioxo-3,14,16-triazatricyclo[14.3.0.0^4,6]nonadec-7-ene-4-carbonyl]-(cyclopropyl)sulfonamide], the “Fold increase in AUC when boosted with ritonavir” value [2] is reported as 55 fold, the “Fold increase in Cmax when boosted with ritonavir” value [2] is reported as 31 fold and the EC50 [3] is reported as 0.007 µM. The Papp at 120 min, 10 μM (in vitro) was 11 ×10⁻⁶ cm/s, the Ki [4] was 0.12 nM and the “% Detected Compound, 30′, ritonavir” value ([5]; 3 μM test compound + 10 μM ritonavir, 30 min) was 88%. The “% Detected Compound, 120′, ritonavir” value ([5]; 3 μM test compound + 10 μM ritonavir, 120 min) was 100%, the “% Detected Compound, 30′, No Booster” value ([5]; 3 μM test compound, 30 min, no ritonavir) was 44% and the “% Detected Compound, 120′, No Booster” value ([5]; 3 μM test compound, 120 min, no ritonavir) was 0%.

Compound COc1ccc2c(O[C@@H]3C[C@H]4C(=O)N[C@]5(C(=O)NS(=O)(=O)C6CC6)C[C@H]5/C=C\CCCCNC(=O)N4C3)cc(-c3nc(C(C)C)cs3)nc2c1 [Compound 26, Cyclopropanesulphonic acid {17-[2-(4-isopropylthiazol-2-yl)-7-methoxyquinolin-4-yloxy]-2,14-dioxo-3,13,15-triaza-tricyclo[13.3.0.0^4,6]-octadec-7-ene-4-carbonyl}-amide] has an EC50 [3] of 0.0064 µM, a Papp at 120 min, 10 μM (in vitro) of 3.6 ×10⁻⁶ cm/s and a Ki [4] of 0.4 nM.

For COc1ccc2c(O[C@@H]3C[C@H]4C(=O)N[C@]5(C(=O)NS(=O)(=O)C6(C)CC6)C[C@H]5/C=C\CCCCNC(=O)N4C3)cc(-c3nc(C(C)C)cs3)nc2c1 [Compound 28, 1-Methyl-cyclopropanesulphonic acid [17-[2-(4-isopropyl-thiazol-2-yl)-7-methoxyquinolin-4-yloxy]-2,14-dioxo-3,13,15-triaza-tricyclo-[13.3.0.0^4,6]octadec-7-ene-4-carbonyl]-amide], the EC50 [3] was 0.0023 µM, the Papp at 120 min, 10 μM (in vitro) was 8.6 ×10⁻⁶ cm/s and the Ki [4] was 0.3 nM.

Work on COc1ccc2c(O[C@@H]3C[C@H]4C(=O)N[C@]5(C(=O)NS(=O)(=O)C6(C)CC6)C[C@H]5/C=C\CCCCCNC(=O)N4C3)cc(-c3nc(C(C)C)cs3)nc2c1 [Compound 33, 1-Methyl-cyclopropanesulphonic acid [18-[2-(4-isopropyl-thiazol-2-yl)-7-methoxyquinolin-4-yloxy]-2,15-dioxo-3,14,16-triaza-tricyclo-[14.3.0.0^4,6]nonadec-7-ene-4-carbonyl]-amide] yielded an EC50 [3] of 0.0036 µM, a Papp at 120 min, 10 μM (in vitro) of 31 ×10⁻⁶ cm/s and a Ki [4] of 0.3 nM.

For N[C@@H](Cc1ccccc1)C(=O)O [L-Phenylalanine], the “% absorption in man” value [6] is given as 100%.
